Patent US11628160B2, “Compositions and methods for treating brain injury” (Azevan Pharmaceuticals, Inc., priority 2017, dated 2023)

Legend:
human V1a receptor [1] = target: T1, human V1a receptor (Homo sapiens, UniProt P37288); assay: Inhibition of phosphatidylinositol turnover (V1a); type: cell-based; details: hV1a cells
T1 construct: host or cells: CHO cells
Excerpt: EXAMPLE. Inhibition of phosphatidylinositol turnover (V1a). The physiological effects of vasopressin are mediated through specific G-protein coupled receptors. The V1aR is coupled to the Gq/G11 family of G proteins and mediates phosphatidylinositol turnover. The agonist or antagonist character of the compounds of the invention may be determined by their ability to inhibit vasopressin-mediated turnover of phosphatidylinositol by the procedure described in the following paragraphs.
Cell culture and labeling of cells. Three days prior to the assay, near-confluent cultures of hV1a or hV1b cells were dissociated and seeded in 6-well tissue culture plates, about 100 wells being seeded from each 75 cm^2 flask (equivalent to 12:1 split ratio). Each well contained 1 mL of growth medium with 2 μCi of [^3H]myo-inositol (American Radiolabeled Chemicals, St. Louis, Mo., USA).
Incubations (V1a and V1b). All assays were in triplicate except for basal and 10 nM AVP (both n=6). AVP ((arginine vasopressin), Peninsula Labs, Belmont, Calif., USA (#8103)) was dissolved in 0.1N acetic acid. Test agents were dissolved in DMSO and diluted in DMSO to 200 times the final test concentration. […] The order of incubations was randomized. Incubations were initiated by removing the prelabeling medium, washing the monolayer once with 1 mL of 0.9% NaCl, and transferring the contents of the assay tubes to corresponding wells. The plates were incubated for 1 hour at 37° C. Incubations were terminated by removing the incubation medium and adding 500 μL of ice cold 5% (w/v) trichloroacetic acid and allowing the wells to stand for 15 min.
Measurement of [^3H]inositol phosphates (V1a and V1b). BioRad Poly-Prep Econo-Columns were packed with 0.3 mL of AG 1 X-8 100-200 formate form resin. Resin was mixed 1:1 with water and 0.6 mL added to each column. Columns were then washed with 10 mL water. Scintillation vials (20 mL) were placed under each column. For each well, the contents were transferred to a minicolumn, after which the well was washed with 0.5 mL distilled water, which was also added to the minicolumn. The columns were then washed twice with 5 mL of 5 mM myo-inositol to elute free inositol. Aliquots (1 mL) were transferred to 20 mL scintillation vials and 10 mL of Beckman Ready Protein Plus added. After the myo-inositol wash was complete, empty scintillation vials were placed under the columns, and [^3H]inositol phosphates were eluted with three additions of 1 mL 0.5 M ammonium formate containing 0.1 N formic acid. […] Inositol lipids were measured by adding 1 mL of 2% sodium dodecyl sulfate (SDS) to each well, allowing the wells to stand for at least 30 min., and transferring the solution to 20 mL scintillation vials, to which 10 mL Beckman Ready Protein Plus scintillation fluid was then added. Samples were counted in a Beckman LS 3801 liquid scintillation counter for 10 min. Total inositol incorporation for each well was calculated as the sum of free inositol, inositol phosphates, and inositol lipids.
Data analysis (V1a and V1b): concentration-inhibition experiments. Concentration-response curves for AVP and concentration-inhibition curves for test agents versus 10 nM AVP were analyzed by nonlinear least-squares curve-fitting to a 4-parameter logistic function. […] The curve-fitting was weighted under the assumption that the standard deviation was proportional to dpm of radioactivity. […]

human V1a receptor [2] = target: T1, human V1a receptor; assay: Human vasopressin V1a receptor binding assay; details: hV1a cell line, [3H]-AVP
Experimental: EXAMPLE. Human vasopressin V1a receptor binding assay. A cell line expressing the human V1a receptor in CHO cells (henceforth referred to as the hV1a cell line) was obtained from Dr. Michael Brownstein, NIMH, Bethesda, Md., USA. The hV1a cDNA sequence is described by Thibonnier et al., Journal of Biological Chemistry, 269, 3304-3310 (1994), and the expression method was the same as described by Morel et al. (1992). The hV1a cell line was grown in alpha-MEM with 10% fetal bovine serum and 250 ug/ml G418 (Gibco, Grand Island, N.Y., USA). For competitive binding assay, hV1a cells were plated into 6-well culture plate at 1:10 dilution from a confluency flask, and maintained in culture for at least two days. Culture medium was then removed, cells were washed with 2 ml binding buffer (25 mM Hepes, 0.25% BSA, 1×DMEM, PH=7.0). To each well, 990 μl binding buffer containing 1 nM 3H-AVP was added, and followed by 10 μl series diluted Example compounds dissolved in DMSO. […] 100 nM cold AVP (Sigma) was used to assess non-specific binding. Cells were incubated for 45 minutes at 37° C., assay mixture was removed and each well was washed three times with PBS (pH=7.4). 1 ml 2% SDS was added per well and plates were let sit for 30 minutes. The whole content in a well was transferred to a scintillation vial. Each well was rinsed with 0.5 ml PBS which was then added to the corresponding vial. Scintillation fluid (Ecoscint, National Diagnostics, Atlanta, Ga.) was then added at 3 ml per vial. Samples were counted in a liquid scintillation counter (Beckman LS3801). IC50 values were calculated by Prism Curve fitting software.
All of the alkanedioic esters and amides exemplified in the foregoing examples dissolved in DMSO were tested in this assay. Binding curves were generated according to methods described by Thibonnier et al. (1994). [^3H]-AVP was added to the hV1a cell cultures followed by 10-fold dilutions of each test compound.

V1b receptor = target: T2, V1b receptor (Homo sapiens, UniProt P47901); assay: Human or rat vasopressin V1b cell-based receptor binding assay; details: selectivity table; read-out: inhibition data Ki, V1b
T2 construct: expressed in transfected cells; host or cells: CHO-K1 (ATCC), vector PCI-neo
T2 sequence (P47901 1-424): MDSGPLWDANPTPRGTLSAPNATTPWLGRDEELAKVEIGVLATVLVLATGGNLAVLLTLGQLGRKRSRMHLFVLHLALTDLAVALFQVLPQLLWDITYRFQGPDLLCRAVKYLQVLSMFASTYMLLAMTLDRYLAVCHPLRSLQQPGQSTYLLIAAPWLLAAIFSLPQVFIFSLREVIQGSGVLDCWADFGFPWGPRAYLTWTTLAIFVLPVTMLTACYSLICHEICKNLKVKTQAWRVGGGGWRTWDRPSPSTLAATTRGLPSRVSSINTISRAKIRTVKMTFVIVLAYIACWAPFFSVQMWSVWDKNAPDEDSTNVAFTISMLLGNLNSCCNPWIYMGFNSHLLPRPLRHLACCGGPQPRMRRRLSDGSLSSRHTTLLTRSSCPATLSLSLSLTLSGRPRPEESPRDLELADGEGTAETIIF
Excerpt: EXAMPLE. Human vasopressin V1b receptor-expressing cells. Human vasopressin receptor 1b (hV1b) cDNA (see, Lolait et al., “Extrapituitary expression of the rat V1b vasopressin receptor gene” Proc. Natl. Acad. Sci. USA. 92:6783-7 (1995); de Keyzer et al., “Cloning and characterization of the human V3(V1b) pituitary vasopressin receptor” FEBS Lett. 356:215-20 (1994); Sugimoto et al., “Molecular cloning and functional expression of a cDNA encoding the human V1b vasopressin receptor” J. Biol. Chem. 269:27088-92 (1994)) was inserted into a mammalian cell expression vector PCI-neo (Promega) at EcoR1 site. The recombinant plasmid carrying hV1b cDNA was identified from transformed E. Coli clones and used for the transfection of Chinese hamster ovary cell (CHO-K1, ATCC). Two micrograms of hV1b receptor DNA was introduced into 10^5 CHO cells cultured in 6-well plate, using Fugene-6 mediated transfection technique (Boehringer Mannheim). Twenty-four hrs post transfection, Cells were then cultured under selection of G-418 (0.25 mg/ml) supplemented to the culture medium. Three days later, limited dilution was carried out to obtain single cell clones in 96-well plates. […]
EXAMPLE. […] Samples were counted in a liquid scintillation counter (Beckman LS3801). IC50 and Ki values were calculated using Prism Curve fitting software. […]

V2 = V2 (Homo sapiens, UniProt P30518); assay: V2 receptor inhibition data (Ki); type: binding; details: selectivity table
Pharmacokinetics = type: in vivo; details: b.i.d. dosing
Excerpt: EXAMPLE. Pharmacokinetics. Compounds described herein are rapidly absorbed after oral administration. Compounds described herein cross the blood-brain-barrier and achieve therapeutically effective concentrations in the CNS. Compounds described herein may be dosed according to a wide variety of protocols, including but not limited to q.d., b.i.d., and the like.

T1 sequence (P37288 whole entry): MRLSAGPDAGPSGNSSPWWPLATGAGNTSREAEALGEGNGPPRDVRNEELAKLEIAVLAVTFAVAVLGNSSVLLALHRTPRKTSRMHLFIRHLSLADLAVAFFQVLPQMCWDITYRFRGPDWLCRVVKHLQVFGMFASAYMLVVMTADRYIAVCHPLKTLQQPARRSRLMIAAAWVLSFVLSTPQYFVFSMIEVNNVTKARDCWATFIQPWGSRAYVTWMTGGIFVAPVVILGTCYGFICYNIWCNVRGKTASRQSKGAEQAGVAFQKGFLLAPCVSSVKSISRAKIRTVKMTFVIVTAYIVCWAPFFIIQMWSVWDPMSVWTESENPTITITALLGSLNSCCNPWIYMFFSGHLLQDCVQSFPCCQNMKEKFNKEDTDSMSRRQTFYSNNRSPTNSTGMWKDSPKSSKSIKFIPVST
Sequence of V2 (P30518 whole entry): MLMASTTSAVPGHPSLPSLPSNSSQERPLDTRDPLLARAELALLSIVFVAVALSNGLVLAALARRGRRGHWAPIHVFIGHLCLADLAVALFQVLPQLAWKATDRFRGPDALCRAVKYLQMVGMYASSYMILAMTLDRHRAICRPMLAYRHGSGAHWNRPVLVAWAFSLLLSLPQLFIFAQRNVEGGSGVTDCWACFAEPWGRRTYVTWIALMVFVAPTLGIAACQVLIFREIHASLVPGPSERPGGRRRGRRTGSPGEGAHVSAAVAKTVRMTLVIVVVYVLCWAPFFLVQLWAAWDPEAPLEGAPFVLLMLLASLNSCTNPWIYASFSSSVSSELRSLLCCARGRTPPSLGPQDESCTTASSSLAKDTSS

O=C(NCc1cccc(C(F)(F)F)c1)C(CC(=O)N1CCC(N2CCCCC2)CC1)N1C(=O)C(N2C(=O)OCC2c2ccccc2)C1C=Cc1ccccc1 (stereo not shown) [Example 44]
agonist or antagonist character (inhibition of vasopressin-mediated phosphatidylinositol turnover) (human V1a receptor [1]): vasopressin V1a antagonists

O=C(NCc1cccc(C(F)(F)F)c1)C(CCC(=O)N1CCC(N2CCCCC2)CC1)N1C(=O)C(N2C(=O)OCC2c2ccccc2)C1C=Cc1ccccc1 (stereo not shown) [Example 88]
agonist or antagonist character (inhibition of vasopressin-mediated phosphatidylinositol turnover) (human V1a receptor [1]): vasopressin V1a antagonists

CN(Cc1cccc(C(F)(F)F)c1)C(=O)[C@@H](CC(=O)N1CCC(N2CCCCC2)CC1)N1C(=O)[C@@H](N2C(=O)OC[C@@H]2c2ccccc2)[C@H]1/C=C/c1ccccc1 [Example 225, 2(R)-[[4-(Piperidinyl)piperidinyl]carbonylmethyl]-2-[3(S)-(4(S)-phenyloxazolidin-2-on-3-yl)-4(R)-(2-styryl)azetidin-2-on-1-yl]acetic acid N-methyl-N-(3-trifluoromethylbenzyl)amide]
IC50 (human V1a receptor [2]): 0.00186 to 0.00213 µM | Ki (human V1a receptor [2]): 0.00114 to 0.0013 µM | Ki (V1b receptor): > 1 µM | Ki (V2): > 1 µM

O=C(NCc1cccc(C(F)(F)F)c1)C(CC(=O)N1CCC(N2CCCCC2)CC1)N1C(=O)C(N2C(=O)OCC2c2ccccc2)C1C=Cc1ccccc1 (stereo not shown) [Example 133]
agonist or antagonist character (inhibition of vasopressin-mediated phosphatidylinositol turnover) (human V1a receptor [1]): vasopressin V1a antagonists

C[C@@H](NC(=O)[C@@H](CC(=O)N1CCC(N2CCCCC2)CC1)N1C(=O)[C@@H](N2C(=O)OC[C@@H]2c2ccccc2)[C@H]1/C=C/c1ccccc1)c1ccccc1 [Example 224, 2(R)-[[4-(Piperidinyl)piperidinyl]carbonylmethyl]-2-[3(S)-(4(S)-phenyloxazolidin-2-on-3-yl)-4(R)-(2-styryl)azetidin-2-on-1-yl]acetic acid N—[(R)-α-methylbenzyl]amide]
Ki (V1b receptor): > 1 µM | Ki (V2): > 1 µM | T1/2 (Pharmacokinetics): improved | accumulation (Pharmacokinetics): 1.7 fold

O=C(NCc1cccc(C(F)(F)F)c1)[C@H](CCC(=O)N1CCN(CCc2ccccc2)CC1)N1C(=O)[C@@H](N2C(=O)OC[C@@H]2c2ccccc2)[C@H]1C=Cc1ccccc1 (single isomer, unassigned) [Example 35]
agonist or antagonist character (inhibition of vasopressin-mediated phosphatidylinositol turnover) (human V1a receptor [1]): vasopressin V1a antagonists

O=C(NCc1cccc(C(F)(F)F)c1)C(CCC(=O)N1CCN(C2CCCCC2)CC1)N1C(=O)C(N2C(=O)OCC2c2ccccc2)C1C=Cc1ccccc1 (single isomer, unassigned) [Example 110]
agonist or antagonist character (inhibition of vasopressin-mediated phosphatidylinositol turnover) (human V1a receptor [1]): vasopressin V1a antagonists
